# pIC50: −log10 of the molar value.
# Experiments:
# [1] = test system: Ba/F3 cells transfected with FLT3 WT; assay: Cytotoxicity in isogenic transfected Ba/F3 cells (Table 4); type: cell-based, Murin; details: Mus musculus, BaF3; n = 3; read-out: IC50 in Transfected Ba/F3 cells, FLT3 WT
# [2] = test system: Ba/F3 cells transfected with FLT3 ITD; assay: as above; type: cell-based, Murin; details: Mus musculus, BaF3; n = 3; read-out: IC50 in Transfected Ba/F3 cells, FLT3 ITD
# [3] = test system: Ba/F3 cells transfected with FLT3 D835Y; assay: as above; type: cell-based, Murin; details: Mus musculus, BaF3; n = 3; read-out: IC50 in Transfected Ba/F3 cells, FLT3 D835Y
# [4] = test system: Ba/F3 cells transfected with FLT3 ITD-F691L; assay: as above; type: cell-based, Murin; details: Mus musculus, BaF3; n = 3; read-out: IC50 in Transfected Ba/F3 cells, FLT3 ITD-F691L
# [5] = test system: Ba/F3 cells transfected with FLT3 ITD-D835Y; assay: as above; type: cell-based, Murin; details: Mus musculus, BaF3; n = 3; read-out: IC50 in Transfected Ba/F3 cells, FLT3 ITD-D835Y
# Ba/F3-FLT3 (FLT3-WT) = assay: Antiproliferative activity (Table 6); type: cell-based, Murin; details: Ba/F3-FLT3, FLT3-WT; 48 h (Gilteritinib); read-out: IC50
# [6] = test system: Ba/F3-ITD + 842 (ITD + Y842C); assay: Antiproliferative activity (Table 6); type: cell-based, Murin; details: Ba/F3-ITD + 842 (ITD + Y842C); 48 h (Gilteritinib); read-out: IC50
# [7] = test system: Ba/F3-ITD + D835Y (FLT3-ITD + D835Y); assay: Antiproliferative activity (Table 6); type: cell-based, Murin; details: Ba/F3-ITD + D835Y; 48 h (Gilteritinib); read-out: IC50
# [8] = test system: Ba/F3-ITD + D835H (FLT3-ITD + D835H); assay: Antiproliferative activity (Table 6); type: cell-based, Murin; details: Ba/F3-ITD + D835H; 48 h (Gilteritinib); read-out: IC50
# [9] = test system: MOLM14 (FLT3-ITD, t(9:11)); assay: Antiproliferative activity (Table 6); type: cell-based; details: Homo sapiens, MOLM-14; MOLM14; 48 h (Gilteritinib); read-out: IC50
# THP-1 (FLT3-WT, t(9:11)) = assay: Antiproliferative activity (Table 6); type: cell-based; details: Homo sapiens; THP-1; 48 h (Gilteritinib); read-out: IC50
# [10] = test system: MV4-11 (FLT3-ITD, t(4:11)); assay: Antiproliferative activity (Table 6); type: cell-based; details: Homo sapiens; MV4-11; 48 h (Gilteritinib); read-out: IC50
# [11] = test system: Ba/F3-ITD + 691 (ITD + F691L); assay: Antiproliferative activity (Table 6); type: cell-based, Murin; details: Ba/F3-ITD + 691 (ITD + F691L); 48 h (Gilteritinib); read-out: IC50
# Ba/F3-D835G (FLT3-D835G) = assay: Antiproliferative activity (Table 6); type: cell-based, Murin; details: Ba/F3-D835G; 48 h (Gilteritinib); read-out: IC50
# Ba/F3-ITD (FLT3-ITD) = assay: Antiproliferative activity (Table 6); type: cell-based, Murin; details: Ba/F3-ITD; 48 h (Gilteritinib); read-out: IC50
# Kasumi-1 (FLT3-WT) = assay: Antiproliferative activity (Table 6); type: cell-based; details: Homo sapiens; Kasumi-1; 48 h (Gilteritinib); read-out: IC50
# [12] = test system: MOLM13 (FLT3-ITD, t(9:11)); assay: Antiproliferative activity (Table 6); type: cell-based; details: Homo sapiens, MOLM-13; MOLM13; 48 h (Gilteritinib); read-out: IC50
# Ba/F3-D835Y (FLT3-D835Y) = assay: Antiproliferative activity (Table 6); type: cell-based, Murin; details: Ba/F3-D835Y; 48 h (Gilteritinib); read-out: IC50
# BTK C481S = BTK C481S (Homo sapiens, UniProt Q06187, C481S); assay: Comparative potency against BTK (Table 8); type: biochemical; details: x printed without key
# Chain of BTK C481S (Q06187 whole entry C481S): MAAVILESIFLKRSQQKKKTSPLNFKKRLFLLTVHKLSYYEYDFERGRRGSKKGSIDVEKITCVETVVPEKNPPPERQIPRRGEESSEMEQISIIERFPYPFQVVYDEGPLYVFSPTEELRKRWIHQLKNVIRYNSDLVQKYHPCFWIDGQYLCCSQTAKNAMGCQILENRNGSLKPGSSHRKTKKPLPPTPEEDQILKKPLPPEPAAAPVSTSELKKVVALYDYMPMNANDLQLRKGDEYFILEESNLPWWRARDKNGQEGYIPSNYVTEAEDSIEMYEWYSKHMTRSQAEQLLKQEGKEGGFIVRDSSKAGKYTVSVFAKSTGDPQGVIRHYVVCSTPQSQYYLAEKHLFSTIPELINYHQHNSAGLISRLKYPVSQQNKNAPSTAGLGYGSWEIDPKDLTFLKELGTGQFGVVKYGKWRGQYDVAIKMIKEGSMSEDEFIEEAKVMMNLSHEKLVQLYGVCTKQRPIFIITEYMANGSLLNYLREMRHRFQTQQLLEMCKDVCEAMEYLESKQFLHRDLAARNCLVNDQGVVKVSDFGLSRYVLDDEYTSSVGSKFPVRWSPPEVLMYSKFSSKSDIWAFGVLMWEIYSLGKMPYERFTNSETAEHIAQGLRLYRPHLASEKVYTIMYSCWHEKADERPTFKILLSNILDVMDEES
# BTK WT = BTK WT (Homo sapiens, UniProt Q06187); assay: Comparative potency against BTK (Table 8); type: biochemical; details: Table 8, wild-type BTK
# Chain of BTK WT (Q06187 whole entry): as the sequence (Q06187 whole entry C481S) above, with S481C counted along it
# ITK = ITK (Homo sapiens, UniProt Q08881); assay: Key off-targets (Table 8); type: biochemical
# Chain of ITK (Q08881 whole entry): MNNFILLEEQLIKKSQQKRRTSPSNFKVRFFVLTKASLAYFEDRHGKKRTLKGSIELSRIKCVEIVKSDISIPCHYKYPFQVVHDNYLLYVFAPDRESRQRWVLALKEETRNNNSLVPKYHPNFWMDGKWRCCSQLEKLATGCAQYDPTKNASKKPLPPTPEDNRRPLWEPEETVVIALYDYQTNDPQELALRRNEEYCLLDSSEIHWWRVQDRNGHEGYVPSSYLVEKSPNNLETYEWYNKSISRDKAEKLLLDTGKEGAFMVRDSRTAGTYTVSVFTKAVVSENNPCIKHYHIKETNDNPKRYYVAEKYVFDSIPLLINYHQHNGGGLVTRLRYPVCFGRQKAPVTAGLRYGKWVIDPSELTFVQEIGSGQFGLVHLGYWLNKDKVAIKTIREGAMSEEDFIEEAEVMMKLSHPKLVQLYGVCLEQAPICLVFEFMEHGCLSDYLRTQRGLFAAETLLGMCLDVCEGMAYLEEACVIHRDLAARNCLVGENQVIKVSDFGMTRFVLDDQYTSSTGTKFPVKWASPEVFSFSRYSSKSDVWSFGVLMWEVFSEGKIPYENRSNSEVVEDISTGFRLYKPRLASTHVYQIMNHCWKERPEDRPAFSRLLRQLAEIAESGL
structure (smiles),measurement,setting,value
CC1(COc2ccc3c(c2)ncn3-c2ccc3cccc(N4CCC(N)CC4)c3n2)COC1 [Crenolanib],pIC50,[1],5.58
same,pIC50,[2],7.46
same,pIC50,[3],6.05
same,pIC50,[4],6.59
same,pIC50,[5],7.50
"CCc1nc(C(N)=O)c(Nc2ccc(N3CCC(N4CCN(C)CC4)CC3)c(OC)c2)nc1NC1CCOCC1 [Gilteritinib, reference compound]",pIC50,Ba/F3-FLT3 (FLT3-WT),7.10
same,pIC50,[6],7.35
same,pIC50,[7],7.98
same,pIC50,[8],7.98
same,pIC50,[9],7.23
same,pIC50,"THP-1 (FLT3-WT, t(9:11))",5.64
same,pIC50,[10],6.76
same,pIC50,[11],6.92
same,pIC50,[1],6.30
same,pIC50,Ba/F3-D835G (FLT3-D835G),7.55
same,pIC50,Ba/F3-ITD (FLT3-ITD),7.44
same,pIC50,[2],7.58
same,pIC50,Kasumi-1 (FLT3-WT),5.65
same,pIC50,[3],6.33
same,pIC50,[12],7.45
same,pIC50,[4],7.01
same,pIC50,[5],8.17
same,pIC50,Ba/F3-D835Y (FLT3-D835Y),6.43
"NC(=O)[C@H]1CCN(c2ncnc(N)c2F)C[C@@H]1N1CCC[C@@H](Nc2cc(Cl)cc(C(F)(F)F)c2)C1=O [SNS-062, reference compound]",pIC50,BTK C481S,8.35
same,pIC50,BTK WT,9.40
same,pIC50,ITK,7.31

# Reference: patent US20180344702A1, “METHODS FOR TREATING PATIENTS WITH HEMATOLOGIC MALIGNANCIES” (Aptose Biosciences, Inc., priority 2017, published 2018)
